# Columns and labels:
# Format in all cases: cell-based
# HCC-2998 = experiment: NCI 60 five-dose screen HCC-2998; conditions: Homo sapiens, five-dose
# NCI/ADR-RES = experiment: NCI 60 five-dose screen NCI/ADR-RES; conditions: Homo sapiens, five-dose
# HL-60(TB) = experiment: NCI 60 five-dose screen HL-60(TB); conditions: Homo sapiens, five-dose
# OVCAR-3 = experiment: NCI 60 five-dose screen OVCAR-3; conditions: Homo sapiens, five-dose
# UACC-257 = experiment: NCI 60 five-dose screen UACC-257; conditions: Homo sapiens, five-dose
# HOP-92 = experiment: NCI 60 five-dose screen HOP-92; conditions: Homo sapiens, five-dose
# A498 = experiment: NCI 60 five-dose screen A498; conditions: Homo sapiens, five-dose
# DU-145 = experiment: NCI 60 five-dose screen DU-145; conditions: Homo sapiens, five-dose
# NCI-H322M = experiment: NCI 60 five-dose screen NCI-H322M; conditions: Homo sapiens, five-dose
# UO-31 = experiment: NCI 60 five-dose screen UO-31; conditions: Homo sapiens, five-dose
# KM12 = experiment: NCI 60 five-dose screen KM12; conditions: Homo sapiens, five-dose
# SNB-75 = experiment: NCI 60 five-dose screen SNB-75; conditions: Homo sapiens, five-dose
# T-47D = experiment: NCI 60 five-dose screen T-47D; conditions: Homo sapiens, T47D, five-dose
# COLO 205 = experiment: NCI 60 five-dose screen COLO 205; conditions: Homo sapiens, five-dose
# HS 578T = experiment: NCI 60 five-dose screen HS 578T; conditions: Homo sapiens, five-dose
# TK-10 = experiment: NCI 60 five-dose screen TK-10; conditions: Homo sapiens, five-dose
# A549/ATCC = experiment: NCI 60 five-dose screen A549/ATCC; conditions: Homo sapiens, five-dose
# SK-MEL-5 = experiment: NCI 60 five-dose screen SK-MEL-5; conditions: Homo sapiens, five-dose
# OVCAR-5 = experiment: NCI 60 five-dose screen OVCAR-5; conditions: Homo sapiens, five-dose
# OVCAR-8 = experiment: NCI 60 five-dose screen OVCAR-8; conditions: Homo sapiens, five-dose
# HOP-62 = experiment: NCI 60 five-dose screen HOP-62; conditions: Homo sapiens, five-dose
# NCI-H226 = experiment: NCI 60 five-dose screen NCI-H226; conditions: Homo sapiens, five-dose
# K-562 = experiment: NCI 60 five-dose screen K-562; conditions: Homo sapiens, K562, five-dose
# LOX IMVI = experiment: NCI 60 five-dose screen LOX IMVI; conditions: Homo sapiens, five-dose
# U251 = experiment: NCI 60 five-dose screen U251; conditions: Homo sapiens, U-251, five-dose
# SF-268 = experiment: NCI 60 five-dose screen SF-268; conditions: Homo sapiens, five-dose
# MDA-MB-468 = experiment: NCI 60 five-dose screen MDA-MB-468; conditions: Homo sapiens, five-dose
# SK-MEL-28 = experiment: NCI 60 five-dose screen SK-MEL-28; conditions: Homo sapiens, five-dose
# [1] = read-out: LC50 (the source's name) (converted)
# [2] = read-out: LC50 (the source's name)
structure (smiles),measurement,setting,value
OC1CCC(Cn2c(C(F)(F)F)cc3c(Cl)ncnc32)CC1 (stereo not shown) [NUCC-0226689],GI50,HCC-2998,1.78 µM
same,IC50,HCC-2998,3.24 µM
same,IC (TGI),HCC-2998,3.31 µM
same,CC50,HCC-2998; [1],6.17 µM
same,GI50,NCI/ADR-RES,26.3 µM
same,IC50,NCI/ADR-RES,43.7 µM
same,IC (TGI),NCI/ADR-RES,100 µM
same,CC50,NCI/ADR-RES; [1],≥ 100 µM
same,GI50,HL-60(TB),2.63 µM
same,IC50,HL-60(TB),5.01 µM
same,IC (TGI),HL-60(TB),8.91 µM
same,CC50,HL-60(TB); [1],≥ 100 µM
same,GI50,OVCAR-3,8.13 µM
same,IC50,OVCAR-3,19.1 µM
same,IC (TGI),OVCAR-3,28.8 µM
same,CC50,OVCAR-3; [1],97.7 µM
same,GI50,UACC-257,3.39 µM
same,IC50,UACC-257,7.76 µM
same,IC (TGI),UACC-257,14.1 µM
same,CC50,UACC-257; [1],56.2 µM
same,GI50,HOP-92,20.4 µM
same,IC50,HOP-92,74.1 µM
same,IC (TGI),HOP-92,64.6 µM
same,CC50,HOP-92; [1],≥ 100 µM
same,GI50,A498,100 µM
same,IC50,A498,100 µM
same,IC (TGI),A498,100 µM
same,CC50,A498; [1],≥ 100 µM
same,GI50,DU-145,7.94 µM
same,IC50,DU-145,13.8 µM
same,IC (TGI),DU-145,20.4 µM
same,CC50,DU-145; [1],46.8 µM
same,GI50,NCI-H322M,3.8 µM
same,IC50,NCI-H322M,10.2 µM
same,IC (TGI),NCI-H322M,13.5 µM
same,CC50,NCI-H322M; [1],38 µM
same,GI50,UO-31,15.1 µM
same,IC50,UO-31,38.9 µM
same,IC (TGI),UO-31,66.1 µM
same,CC50,UO-31; [1],≥ 100 µM
same,GI50,KM12,26.3 µM
same,IC50,KM12,37.2 µM
same,IC (TGI),KM12,93.3 µM
same,CC50,KM12; [1],≥ 100 µM
same,GI50,SNB-75,10.7 µM
same,IC50,SNB-75,23.4 µM
same,IC (TGI),SNB-75,22.9 µM
same,CC50,SNB-75; [1],49 µM
same,GI50,T-47D,26.3 µM
same,IC50,T-47D,91.2 µM
same,IC (TGI),T-47D,100 µM
same,CC50,T-47D; [2],≥ 100 µM
same,GI50,COLO 205,24.5 µM
same,IC50,COLO 205,45.7 µM
same,IC (TGI),COLO 205,100 µM
same,CC50,COLO 205; [1],≥ 100 µM
same,GI50,HS 578T,13.8 µM
same,IC50,HS 578T,93.3 µM
same,IC (TGI),HS 578T,53.7 µM
same,CC50,HS 578T; [2],≥ 100 µM
same,GI50,TK-10,100 µM
same,IC50,TK-10,100 µM
same,IC (TGI),TK-10,100 µM
same,CC50,TK-10; [1],≥ 100 µM
same,GI50,A549/ATCC,30.9 µM
same,IC50,A549/ATCC,43.7 µM
same,IC (TGI),A549/ATCC,100 µM
same,CC50,A549/ATCC; [1],≥ 100 µM
same,GI50,SK-MEL-5,4.79 µM
same,IC50,SK-MEL-5,8.32 µM
same,IC (TGI),SK-MEL-5,16.6 µM
same,CC50,SK-MEL-5; [1],42.7 µM
same,GI50,OVCAR-5,100 µM
same,IC50,OVCAR-5,100 µM
same,IC (TGI),OVCAR-5,100 µM
same,CC50,OVCAR-5; [1],≥ 100 µM
same,GI50,OVCAR-8,2.29 µM
same,IC50,OVCAR-8,3.63 µM
same,IC (TGI),OVCAR-8,5.37 µM
same,CC50,OVCAR-8; [1],30.9 µM
same,GI50,HOP-62,20 µM
same,IC50,HOP-62,42.7 µM
same,IC (TGI),HOP-62,57.5 µM
same,CC50,HOP-62; [1],≥ 100 µM
same,GI50,NCI-H226,23.4 µM
same,IC50,NCI-H226,100 µM
same,IC (TGI),NCI-H226,79.4 µM
same,CC50,NCI-H226; [1],≥ 100 µM
same,GI50,K-562,2.88 µM
same,IC50,K-562,3.55 µM
same,IC (TGI),K-562,100 µM
same,CC50,K-562; [2],≥ 100 µM
same,GI50,LOX IMVI,1.7 µM
same,IC50,LOX IMVI,3.02 µM
same,IC (TGI),LOX IMVI,3.16 µM
same,CC50,LOX IMVI; [1],5.75 µM
same,GI50,U251,3.24 µM
same,IC50,U251,4.27 µM
same,IC (TGI),U251,12.9 µM
same,CC50,U251; [1],44.7 µM
same,GI50,SF-268,2.51 µM
same,IC50,SF-268,4.47 µM
same,IC (TGI),SF-268,6.92 µM
same,CC50,SF-268; [1],37.2 µM
same,GI50,MDA-MB-468,2.14 µM
same,IC50,MDA-MB-468,7.08 µM
same,IC (TGI),MDA-MB-468,5.62 µM
same,CC50,MDA-MB-468; [1],22.4 µM
same,GI50,SK-MEL-28,9.33 µM
same,IC50,SK-MEL-28,19.1 µM
same,IC (TGI),SK-MEL-28,30.9 µM
same,CC50,SK-MEL-28; [1],≥ 100 µM
